{"source": "PubChem BioAssay AID330", "about": "(DTP/NCI, 2004)", "tested_on": "P388 leukemia ip, CD2F1 mice, survival T/C", "test": "NCI In Vivo Anticancer Drug Screen. Data for tumor model P388 Leukemia (intraperitoneal) in CD2F1 (CDF1) mice", "conditions": "endpoint: median survival time, higher = longer survival", "how_it_was_run": "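Mice carrying the transplanted tumor received test compound or vehicle. Survival was recorded in each group, and the value is the treated-group measurement divided by that of the vehicle-treated control group.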", "key": {"[1]": {"conditions": "dose: 100.0 mg/kg/injection, schedule: Q04DX002 (ip), vehicle: saline with Tween-80"}, "[2]": {"conditions": "dose: 50.0 mg/kg/injection, schedule: Q01DX009 (ip), vehicle: saline with Tween-80"}, "[3]": {"conditions": "dose: 100.0 mg/kg/injection, schedule: Q01DX009 (ip), vehicle: saline with Tween-80"}, "[4]": {"conditions": "dose: 200.0 mg/kg/injection, schedule: Q01DX009 (ip), vehicle: saline with Tween-80"}}, "note": "Values joined by “and” are separate entries in the source; they are usually repeats but may differ in a detail not shown here. Identical values can stand only once. Toxic doses and inconclusive results are not listed.", "data": [{"smiles": "CCC(C)C1NC(=O)C(NC(=O)c2c3nc4c(C(=O)NC5C(=O)NC(C(C)CC)C(=O)N6CCCC6C(=O)N(C)CC(=O)N(C)C(C(C)C)C(=O)OC5C)cc([N+](=O)[O-])c(C)c4oc-3c(C)c(=O)c2N)C(C)OC(=O)C(C(C)C)N(C)C(=O)CN(C)C(=O)C2CCCN2C1=O", "note": "(stereo not drawn)", "values": [{"measurement": "T/C", "setting": "dose: 0.2 mg/kg/injection, schedule: Q01DX009 (ip), vehicle: Klucel (hydroxypropylcellulose) (HPC)", "value": "168 % of control"}, {"measurement": "T/C", "setting": "dose: 0.4 mg/kg/injection, schedule: Q01DX009 (ip), vehicle: Klucel (hydroxypropylcellulose) (HPC)", "value": "228 % of control"}, {"measurement": "T/C", "setting": "dose: 0.4 mg/kg/injection, schedule: Q01DX009 (ip), vehicle: water", "value": "169 % of control"}, {"measurement": "T/C", "setting": "dose: 0.6 mg/kg/injection, schedule: Q01DX009 (ip), vehicle: water", "value": "193 % of control"}, {"measurement": "T/C", "setting": "dose: 0.8 mg/kg/injection, schedule: Q01DX009 (ip), vehicle: Klucel (hydroxypropylcellulose) (HPC)", "value": "92 % of control"}]}, {"smiles": "CCOC(=O)CSC(=O)c1cccnc1Oc1ccccc1", "values": [{"measurement": "T/C", "setting": "dose: 50.0 mg/kg/injection, schedule: Q01DX005 (ip), vehicle: Klucel (hydroxypropylcellulose) (HPC)", "value": "94 % of control"}, {"measurement": "T/C", "setting": "dose: 100.0 mg/kg/injection, schedule: Q01DX005 (ip), vehicle: Klucel (hydroxypropylcellulose) (HPC)", "value": "90 % of control"}, {"measurement": "T/C", "setting": "dose: 200.0 mg/kg/injection, schedule: Q01DX005 (ip), vehicle: Klucel (hydroxypropylcellulose) (HPC)", "value": "93 % of control"}]}, {"smiles": "N#Cc1c(=O)[nH]nc2c3ccccc3c3ccccc3c12", "values": [{"measurement": "T/C", "setting": "[1]", "value": "92 % of control"}, {"measurement": "T/C", "setting": "dose: 200.0 mg/kg/injection, schedule: Q04DX002 (ip), vehicle: saline with Tween-80", "value": "95 % of control"}, {"measurement": "T/C", "setting": "dose: 400.0 mg/kg/injection, schedule: Q04DX002 (ip), vehicle: saline with Tween-80", "value": "96 % of control"}]}, {"smiles": "CCCC(=O)NC1CCc2cc(OC)c(OC)c(OC)c2-c2ccc(OC)c(=O)cc21", "note": "(stereo not drawn)", "values": [{"measurement": "T/C", "setting": "dose: 0.62 mg/kg/injection, schedule: Q01DX009 (ip), vehicle: Klucel (hydroxypropylcellulose) (HPC)", "value": "152 % of control"}, {"measurement": "T/C", "setting": "dose: 0.63 mg/kg/injection, schedule: Q01DX009 (ip), vehicle: Klucel (hydroxypropylcellulose) (HPC)", "value": "178 % of control"}, {"measurement": "T/C", "setting": "dose: 1.25 mg/kg/injection, schedule: Q01DX009 (ip), vehicle: Klucel (hydroxypropylcellulose) (HPC)", "value": "152 % of control and 233 % of control"}, {"measurement": "T/C", "setting": "dose: 2.5 mg/kg/injection, schedule: Q01DX009 (ip), vehicle: Klucel (hydroxypropylcellulose) (HPC)", "value": "221 % of control"}]}, {"smiles": "CCCCCCC(=O)/C=C/c1ccc(OC)cc1OC", "values": [{"measurement": "T/C", "setting": "[2]", "value": "94 % of control"}, {"measurement": "T/C", "setting": "[3]", "value": "91 % of control"}, {"measurement": "T/C", "setting": "[4]", "value": "91 % of control"}]}, {"smiles": "Cc1s\\c(=N/N=N/N=c2\\sc(C)c(C)n2Cc2ccccc2)n(Cc2ccccc2)c1C", "values": [{"measurement": "T/C", "setting": "dose: 60.0 mg/kg/injection, schedule: Q01DX005 (ip), vehicle: saline with Tween-80", "value": "103 % of control"}, {"measurement": "T/C", "setting": "dose: 120.0 mg/kg/injection, schedule: Q01DX005 (ip), vehicle: saline with Tween-80", "value": "97 % of control"}, {"measurement": "T/C", "setting": "dose: 240.0 mg/kg/injection, schedule: Q01DX005 (ip), vehicle: saline with Tween-80", "value": "103 % of control"}]}, {"smiles": "Cc1ccc(C[n+]2ccc3c([N+](=O)[O-])cccc3c2)cc1", "values": [{"measurement": "T/C", "setting": "dose: 6.25 mg/kg/injection, schedule: Q01DX009 (ip), vehicle: saline with Tween-80", "value": "112 % of control"}, {"measurement": "T/C", "setting": "dose: 12.5 mg/kg/injection, schedule: Q01DX009 (ip), vehicle: saline with Tween-80", "value": "113 % of control"}, {"measurement": "T/C", "setting": "dose: 25.0 mg/kg/injection, schedule: Q01DX009 (ip), vehicle: saline with Tween-80", "value": "114 % of control"}]}, {"smiles": "C=CC(=NC(C)(C)C)Nc1ccc(Cl)cc1", "values": [{"measurement": "T/C", "setting": "[2]", "value": "100 % of control"}, {"measurement": "T/C", "setting": "[3]", "value": "94 % of control"}, {"measurement": "T/C", "setting": "[4]", "value": "97 % of control"}]}, {"smiles": "COc1ccc(NC(SC)=C(C#N)C#N)cc1", "values": [{"measurement": "T/C", "setting": "dose: 25.0 mg/kg/injection, schedule: Q04DX002 (ip), vehicle: saline with Tween-80", "value": "99 % of control"}, {"measurement": "T/C", "setting": "dose: 50.0 mg/kg/injection, schedule: Q04DX002 (ip), vehicle: saline with Tween-80", "value": "100 % of control"}, {"measurement": "T/C", "setting": "[1]", "value": "98 % of control"}]}, {"smiles": "Cc1c2ccccc2c(C)c2c1cc[n+]1ccccc21", "values": [{"measurement": "T/C", "setting": "dose: 6.25 mg/kg/injection, schedule: Q04DX003 (ip), vehicle: other", "value": "105 % of control"}, {"measurement": "T/C", "setting": "dose: 12.5 mg/kg/injection, schedule: Q04DX003 (ip), vehicle: other", "value": "103 % of control"}, {"measurement": "T/C", "setting": "dose: 25.0 mg/kg/injection, schedule: Q04DX003 (ip), vehicle: other", "value": "99 % of control"}]}, {"smiles": "CC(=O)Nc1nc(C(C)(C)C)c([N+](=O)[O-])s1", "values": [{"measurement": "T/C", "setting": "[2]", "value": "95 % of control"}, {"measurement": "T/C", "setting": "[3]", "value": "104 % of control"}, {"measurement": "T/C", "setting": "[4]", "value": "95 % of control"}]}, {"smiles": "O=C(Nc1cccc2ccccc12)c1cc2c(cc1Br)OCO2", "values": [{"measurement": "T/C", "setting": "dose: 12.5 mg/kg/injection, schedule: Q01DX009 (ip), vehicle: distilled water + Tween-80", "value": "104 % of control"}, {"measurement": "T/C", "setting": "dose: 25.0 mg/kg/injection, schedule: Q01DX009 (ip), vehicle: distilled water + Tween-80", "value": "95 % of control"}, {"measurement": "T/C", "setting": "dose: 50.0 mg/kg/injection, schedule: Q01DX009 (ip), vehicle: distilled water + Tween-80", "value": "92 % of control"}, {"measurement": "T/C", "setting": "dose: 200.0 mg/kg/injection, schedule: Q01DX009 (ip), vehicle: distilled water + Tween-80", "value": "90 % of control"}]}, {"smiles": "CCOC(=O)C1(C)CCCC1N", "note": "(stereo not drawn)", "values": [{"measurement": "T/C", "setting": "dose: 60.0 mg/kg/injection, schedule: Q01DX005 (ip), vehicle: saline", "value": "92 % of control"}, {"measurement": "T/C", "setting": "dose: 120.0 mg/kg/injection, schedule: Q01DX005 (ip), vehicle: saline", "value": "90 % of control"}]}, {"smiles": "COc1cccc(/C=N\\NC(=O)C(C)SC(C)C(=O)N/N=C/c2cccc(OC)c2)c1", "note": "(stereo not drawn)", "values": [{"measurement": "T/C", "setting": "dose: 100.0 mg/kg/injection, schedule: Q04DX003 (ip), vehicle: saline with Tween-80", "value": "104 % of control"}, {"measurement": "T/C", "setting": "dose: 200.0 mg/kg/injection, schedule: Q04DX003 (ip), vehicle: saline with Tween-80", "value": "90 % of control"}, {"measurement": "T/C", "setting": "dose: 400.0 mg/kg/injection, schedule: Q04DX003 (ip), vehicle: saline with Tween-80", "value": "100 % of control"}]}, {"smiles": "CC1=NNB(O)c2sccc21", "values": [{"measurement": "T/C", "setting": "[2]", "value": "90 % of control"}, {"measurement": "T/C", "setting": "[3]", "value": "100 % of control"}, {"measurement": "T/C", "setting": "[4]", "value": "91 % of control"}]}]}
